The target of one test is T1, HDAC6 enzyme (Homo sapiens, UniProt Q9UBN7).
T1 construct: prepared by transducing full length HDAC6 gene into Sf-9 insect cells; GST; purchased SignalChem; host or cells: Sf-9 insect cells
T1 sequence (Q9UBN7 1-1215): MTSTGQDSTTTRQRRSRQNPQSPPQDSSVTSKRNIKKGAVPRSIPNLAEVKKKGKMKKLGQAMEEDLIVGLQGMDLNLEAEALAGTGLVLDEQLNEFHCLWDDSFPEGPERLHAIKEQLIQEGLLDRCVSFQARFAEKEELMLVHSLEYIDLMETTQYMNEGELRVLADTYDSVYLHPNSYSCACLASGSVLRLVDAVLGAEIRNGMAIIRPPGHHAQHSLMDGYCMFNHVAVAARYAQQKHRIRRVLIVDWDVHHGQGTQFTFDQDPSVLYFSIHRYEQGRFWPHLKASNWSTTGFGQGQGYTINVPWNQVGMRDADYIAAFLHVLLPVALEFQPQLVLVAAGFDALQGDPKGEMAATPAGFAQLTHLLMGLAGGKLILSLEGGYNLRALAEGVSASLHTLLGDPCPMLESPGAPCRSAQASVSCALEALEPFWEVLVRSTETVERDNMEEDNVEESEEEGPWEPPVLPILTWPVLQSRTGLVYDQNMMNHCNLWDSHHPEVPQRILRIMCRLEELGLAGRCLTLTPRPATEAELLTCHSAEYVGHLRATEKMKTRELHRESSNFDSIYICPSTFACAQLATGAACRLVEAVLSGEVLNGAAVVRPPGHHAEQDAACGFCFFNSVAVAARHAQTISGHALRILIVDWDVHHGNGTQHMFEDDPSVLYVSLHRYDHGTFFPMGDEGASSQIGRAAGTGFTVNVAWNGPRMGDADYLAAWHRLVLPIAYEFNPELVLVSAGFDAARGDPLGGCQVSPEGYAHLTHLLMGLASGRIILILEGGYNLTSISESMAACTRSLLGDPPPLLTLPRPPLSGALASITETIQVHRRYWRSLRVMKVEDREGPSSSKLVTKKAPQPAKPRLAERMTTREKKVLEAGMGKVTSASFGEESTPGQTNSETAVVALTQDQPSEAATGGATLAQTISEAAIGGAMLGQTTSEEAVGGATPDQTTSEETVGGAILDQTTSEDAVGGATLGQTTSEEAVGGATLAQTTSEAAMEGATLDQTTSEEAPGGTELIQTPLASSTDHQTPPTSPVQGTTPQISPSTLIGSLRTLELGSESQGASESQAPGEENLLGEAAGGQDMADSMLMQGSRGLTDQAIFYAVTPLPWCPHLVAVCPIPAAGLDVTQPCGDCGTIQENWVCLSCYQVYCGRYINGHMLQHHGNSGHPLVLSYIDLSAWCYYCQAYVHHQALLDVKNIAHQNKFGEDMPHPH
As to the kind of experiment: HDAC6 enzyme inhibitory assay (HDAC-Glo I/II Assay kit, luminescence). The settings on record: 10 μM test compound; wells without enzyme = 100% inhibition; read-out: HDAC6 inhibitory rate (%) (10 μM). In kind it is biochemical. A digest of the protocol:
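Full-length human HDAC6, GST-purified from Sf-9 cells, was preincubated with compound for 60 min at room temperature in Tris-HCl pH 7.5 buffer with glutathione and Tween-20. Substrate-developer was then added, and luminescence was read after 20 min at room temperature. Inhibition was expressed relative to no-enzyme wells, taken as 100% inhibition.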

A further test has as its system tauopathy mouse model. The following applies: cited from earlier work.

For `Cc1ccccc1Cn1ccnc1-c1cc(-c2nnc(C(F)F)o2)ccn1` [Example 86a, 4-[5-(difluoromethyl)-1,3,4-oxadiazol-2-yl]-2-{1-[(2-methylphenyl)methyl]-1H-imidazol-2-yl}pyridine], the inhibition at 10 µM on HDAC6 enzyme amounted to 100%. With `Fc1cccc(Cc2ccnn2-c2cc(-c3nnc(C(F)F)o3)ccn2)c1` [Example 87a, 4-[5-(difluoromethyl)-1,3,4-oxadiazol-2-yl]-2-{5-[(3-fluorophenyl)methyl]-1H-pyrazol-1-yl}pyridine], at HDAC6 enzyme, the inhibition at 10 µM turned out to be 99%. Take `Cn1ccc(OC2CCC(F)(F)CC2)c(-c2cc(-c3nnc(C(F)F)o3)ccn2)c1=O` [Example 88a, 4′-[(4,4-difluorocyclohexyl)oxy]-4-[5-(difluoromethyl)-1,3,4-oxadiazol-2-yl]-1′-methyl[2,3′-bipyridine]-2′(1′H)-one]: the inhibition at 10 µM on HDAC6 enzyme came to 100%. Take `Fc1cccc(Cc2ncnn2-c2cc(-c3nnc(C(F)F)o3)ccn2)c1` [Example 89a, 4-[5-(difluoromethyl)-1,3,4-oxadiazol-2-yl]-2-{5-[(3-fluorophenyl)methyl]-1H-1,2,4-triazol-1-yl}pyridine]: the inhibition at 10 µM at HDAC6 enzyme came out at 97%.

Take `Fc1cccc(Cc2cncnc2-c2cc(-c3nnc(C(F)F)o3)ccn2)c1` [Example 90a, 4-{4-[5-(difluoromethyl)-1,3,4-oxadiazol-2-yl]pyridin-2-yl}-5-[(3-fluorophenyl)methyl]pyrimidine]: on HDAC6 enzyme, the inhibition at 10 µM came to 98%. Consider `Cn1ccc(OC2CCOCC2)c(-c2cc(-c3nnc(C(F)F)o3)ccn2)c1=O` [Example 91a, 4-[5-(difluoromethyl)-1,3,4-oxadiazol-2-yl]-1′-methyl-4′-[(oxan-4-yl)oxy][2,3′-bipyridine]-2′(1′H)-one], for which the inhibition at 10 µM on HDAC6 enzyme is 100%. For `CC(c1cccc(F)c1)n1ccnc1-c1cc(-c2nnc(C(F)F)o2)ccn1` (stereo not drawn) [Example 92a, 4-[5-(difluoromethyl)-1,3,4-oxadiazol-2-yl]-2-{1-[1-(3-fluorophenyl)ethyl]-1H-imidazol-2-yl}pyridine], at HDAC6 enzyme, the inhibition at 10 µM is 100%.

Turning to `FC(F)c1nnc(-c2ccnc(-c3nccn3Cc3cncc(Cl)c3)c2)o1` [Example 93a, 2-{1-[(5-chloropyridin-3-yl)methyl]-1H-imidazol-2-yl}-4-[5-(difluoromethyl)-1,3,4-oxadiazol-2-yl]pyridine], the inhibition at 10 µM at HDAC6 enzyme stood at 100%.

`N#Cc1cccc(Cn2ccnc2-c2cc(-c3nnc(C(F)F)o3)ccn2)n1` [Example 94a, 6-[(2-{4-[5-(difluoromethyl)-1,3,4-oxadiazol-2-yl]pyridin-2-yl]-1H-imidazol-1-yl)methyl]pyridine-2-carbonitrile]: the inhibition at 10 µM on HDAC6 enzyme was determined as 99%.

With `N#Cc1ccnc(Cn2ccnc2-c2cc(-c3nnc(C(F)F)o3)ccn2)c1` [Example 95a, 2-[(2-{4-[5-(difluoromethyl)-1,3,4-oxadiazol-2-yl]pyridin-2-yl}-1H-imidazol-1-yl)methyl]pyridine-4-carbonitrile], the inhibition at 10 µM at HDAC6 enzyme was found to be 100%. On to `CN1CCc2c(c3ccccc3n2Cc2ccc(C(=O)NO)cc2)C1` [Tubastatin A], for which, in the test with tauopathy mouse model, the acetylation of tubulin result was “increases acetylation of tubulin” and the therapeutic effectiveness result is “shows therapeutic effectiveness”.

Values taken from patent US12084436B2, “Heterocyclic compound” (Takeda Pharmaceutical Company Limited, priority 2019, dated 2024).
